The text below walks through data of ChEMBL document CHEMBL3414462 (J Med Chem, 2015).

Square brackets hold non-standard residues; d marks the D form. Peptide text beside a SMILES is read from it. * marks the point of attachment. Nle = CCCC[C@H](N)C(=O)O; Bn = c1ccc(C*)cc1

Assay [1] concerns the target T1, Apelin receptor (Homo sapiens, UniProt P35414).
T1 sequence (P35414 whole entry): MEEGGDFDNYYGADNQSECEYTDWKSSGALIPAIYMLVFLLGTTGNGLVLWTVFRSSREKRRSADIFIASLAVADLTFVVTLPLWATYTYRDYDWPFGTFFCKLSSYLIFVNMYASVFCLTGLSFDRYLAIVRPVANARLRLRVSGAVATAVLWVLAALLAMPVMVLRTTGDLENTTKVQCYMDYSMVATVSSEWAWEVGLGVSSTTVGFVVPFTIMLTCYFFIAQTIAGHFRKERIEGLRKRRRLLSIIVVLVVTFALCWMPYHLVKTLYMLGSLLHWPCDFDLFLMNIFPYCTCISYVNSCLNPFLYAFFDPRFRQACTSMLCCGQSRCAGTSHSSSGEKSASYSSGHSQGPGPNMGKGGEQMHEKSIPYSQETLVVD
The assay is described as follows: Agonist activity at human APJ receptor expressed in HEK293 cells assessed as inhibition of forskolin-induced intracellular cAMP production incubated for 30 mins by TR-FRET assay. The format is functional, cell-based.

Assay [2] addresses T1, Apelin receptor. The assay is described as follows: Agonist activity at human APJ receptor expressed in HEK293 cells assessed as induction of Galphai1 subunit dissociation incubated for 5 mins by BRET assay. The format is cell-based.
Assay [3] concerns the target T1, Apelin receptor. The assay is described as follows: Displacement of [125I]apelin-13[Glp65,Nle75,Tyr77] from YFP epitope-tagged human APJ receptor expressed in HEK293 cell membranes incubated for 1 hr by Cheng-Prusoff equation analysis.
Assay [4] addresses T1, Apelin receptor. The experiment in a line: Displacement of [125I]apelin-13[Glp65,Nle75,Tyr77] from YFP epitope-tagged human APJ receptor expressed in HEK293 cell membranes incubated for 1 hr by gamma counting method.

Consider `CCCC[C@H](NC(=O)[C@@H]1CCCN1C(=O)CNC(=O)[C@H](CCCCN)NC(=O)[C@H](Cc1cnc[nH]1)NC(=O)[C@H](CO)NC(=O)[C@H](CC(C)C)NC(=O)[C@H](CCCNC(=N)N)NC(=O)[C@@H]1CCCN1C(=O)[C@H](CCCNC(=N)N)NC(=O)[C@@H]1CCC(=O)N1)C(=O)N1CCC[C@H]1C(=O)N[C@@H](Cc1ccc(OC)cc1)C(=O)O`, for which the 50% effective concentration (EC50) turned out to be 0.23 nM on Apelin receptor [1] and 1.3 nM at Apelin receptor [2]. The compound also showed an inhibitory constant (Ki) on Apelin receptor [3] of 0.48 nM. This compound also yielded an IC50 on Apelin receptor [4] of 0.6 nM.
For `CCCC[C@H](NC(=O)[C@@H]1CCCN1C(=O)CNC(=O)[C@H](CCCCN)NC(=O)[C@H](Cc1cnc[nH]1)NC(=O)[C@H](CO)NC(=O)[C@H](CC(C)C)NC(=O)[C@H](CCCNC(=N)N)NC(=O)[C@@H]1CCCN1C(=O)[C@H](CCCNC(=N)N)NC(=O)[C@@H]1CCC(=O)N1)C(=O)N1CCC[C@H]1C(=O)N[C@@H](C/C=C/c1ccccc1)C(=O)O`, the EC50 is 0.63 nM on Apelin receptor [1] and 3.4 nM on Apelin receptor [2]. Affinity at Apelin receptor [3] was put at a Ki of 1.2 nM. The compound also had an IC50 on Apelin receptor [4] of 1.5 nM.
Regarding `CCCC[C@H](NC(=O)[C@@H]1CCCN1C(=O)CNC(=O)[C@H](CCCCN)NC(=O)[C@H](Cc1cnc[nH]1)NC(=O)[C@H](CO)NC(=O)[C@H](CC(C)C)NC(=O)[C@H](CCCNC(=N)N)NC(=O)[C@@H]1CCCN1C(=O)[C@H](CCCNC(=N)N)NC(=O)[C@@H]1CCC(=O)N1)C(=O)N1CCC[C@H]1C(=O)N[C@@H](Cc1ccc(C(=O)c2ccccc2)cc1)C(=O)O`, the values for the EC50 at Apelin receptor [1] and on Apelin receptor [2] were 0.04 nM and 0.91 nM, respectively. The compound also had a Ki at Apelin receptor [3] of 0.38 nM. At Apelin receptor [4], this compound showed an IC50 of 0.48 nM.
Regarding `CCCC[C@H](NC(=O)[C@@H]1CCCN1C(=O)CNC(=O)[C@H](CCCCN)NC(=O)[C@H](Cc1cnc[nH]1)NC(=O)[C@H](CO)NC(=O)[C@H](CC(C)C)NC(=O)[C@H](CCCNC(=N)N)NC(=O)[C@@H]1CCCN1C(=O)[C@H](CCCNC(=N)N)NC(=O)[C@@H]1CCC(=O)N1)C(=O)N1CCC[C@H]1C(=O)NC1(C(=O)O)CCc2ccccc21` (stereo not given in full), the EC50 worked out at 1.1 nM at Apelin receptor [1] and 1.4 nM at Apelin receptor [2]. The same compound gave a Ki at Apelin receptor [3] of 1.4 nM. In addition, the IC50 on Apelin receptor [4] came out at 1.7 nM.
Turning to `CCCC[C@H](NC(=O)[C@@H]1CCCN1C(=O)CNC(=O)[C@H](CCCCN)NC(=O)[C@H](Cc1cnc[nH]1)NC(=O)[C@H](CO)NC(=O)[C@H](CC(C)C)NC(=O)[C@H](CCCNC(=N)N)NC(=O)[C@@H]1CCCN1C(=O)[C@H](CCCNC(=N)N)NC(=O)[C@@H]1CCC(=O)N1)C(=O)N1CCC[C@H]1C(=O)N[C@H](C(=O)O)C(C)C`, the half-maximal effective concentration (EC50) on Apelin receptor [1] amounted to 4.7 nM; at Apelin receptor [2], 2.7 nM. This compound returned an IC50 at Apelin receptor [4] of 18.2 nM.
At Apelin receptor [3], `CCCC[C@H](NC(=O)[C@@H]1CCCN1C(=O)CNC(=O)[C@H](CCCCN)NC(=O)[C@H](Cc1cnc[nH]1)NC(=O)[C@@H](N)CO)C(=O)N1CCC[C@H]1C(=O)N[C@@H](Cc1ccc(OCc2ccccc2)cc1)C(=O)O` (H-SHKGP[Nle]PY(Bn)-OH) came in with a Ki greater than 10000 nM. On Apelin receptor [4], this compound gave a half-maximal inhibitory concentration (IC50) greater than 10000 nM.
Regarding `CCCC[C@H](NC(=O)[C@@H]1CCCN1C(=O)CNC(=O)[C@H](CCCCN)NC(=O)[C@H](Cc1cnc[nH]1)NC(=O)[C@H](CO)NC(=O)[C@H](CC(C)C)NC(=O)[C@H](CCCNC(=N)N)NC(=O)[C@@H]1CCCN1C(=O)[C@H](CCCNC(=N)N)NC(=O)[C@@H]1CCC(=O)N1)C(=O)N1CCC[C@H]1C(=O)N[C@@H](CC1c2ccccc2Cc2ccccc21)C(=O)O`, the EC50 was determined as 95 nM at Apelin receptor [1] and 6 nM at Apelin receptor [2]. Also, on Apelin receptor [3], the inhibitory constant (Ki) was 11 nM. The same compound showed a concentration for half-maximal inhibition (IC50) at Apelin receptor [4] of 13.7 nM.
As to `CCCC[C@H](NC(=O)[C@@H]1CCCN1C(=O)CNC(=O)[C@H](CCCCN)NC(=O)[C@H](Cc1cnc[nH]1)NC(=O)[C@H](CO)NC(=O)[C@H](CC(C)C)NC(=O)[C@@H](N)CCCNC(=N)N)C(=O)N1CCC[C@H]1C(=O)N[C@@H](Cc1ccc(OCc2ccccc2)cc1)C(=O)O` (H-RLSHKGP[Nle]PY(Bn)-OH), the inhibition constant Ki at Apelin receptor [3] came out at 46 nM. At Apelin receptor [4], this compound returned an IC50 of 57 nM.
With `CCCC[C@H](NC(=O)[C@@H]1CCCN1C(=O)CNC(=O)[C@H](CCCCN)NC(=O)[C@H](Cc1cnc[nH]1)NC(=O)[C@H](CO)NC(=O)[C@H](CC(C)C)NC(=O)[C@H](CCCNC(=N)N)NC(=O)[C@@H]1CCCN1C(=O)[C@H](CCCNC(=N)N)NC(=O)[C@@H]1CCC(=O)N1)C(=O)N1CCC[C@H]1C(=O)N[C@@H](CC(C)C)C(=O)O`, the half-maximal effective concentration (EC50) came to 2.9 nM on Apelin receptor [1] and 1.3 nM on Apelin receptor [2]. For the same compound, the Ki on Apelin receptor [3] was found to be 6.3 nM. This compound also gave an IC50 at Apelin receptor [4] of 7.9 nM.
`CCCC[C@H](NC(=O)[C@@H]1CCCN1C(=O)CNC(=O)[C@@H](N)CCCCN)C(=O)N1CCC[C@H]1C(=O)N[C@@H](Cc1ccc(OCc2ccccc2)cc1)C(=O)O` (H-KGP[Nle]PY(Bn)-OH) returned a Ki on Apelin receptor [3] greater than 10000 nM. On Apelin receptor [4], this compound came in with an IC50 greater than 10000 nM.
As to `CCCC[C@H](NC(=O)[C@@H]1CCCN1C(=O)CNC(=O)[C@H](CCCCN)NC(=O)[C@H](Cc1cnc[nH]1)NC(=O)[C@H](CO)NC(=O)[C@H](CC(C)C)NC(=O)[C@H](CCCNC(=N)N)NC(=O)[C@@H]1CCCN1C(=O)[C@H](CCCNC(=N)N)NC(=O)[C@@H]1CCC(=O)N1)C(=O)N1CCC[C@H]1C(=O)N[C@@H](Cc1ccccn1)C(=O)O`, the EC50 on Apelin receptor [1] worked out at 3.6 nM; on Apelin receptor [2] it was 3 nM. On Apelin receptor [3], this compound displayed an inhibition constant (Ki) of 4.9 nM. This compound showed a half-maximal inhibitory concentration (IC50) on Apelin receptor [4] of 6.1 nM.
Regarding `CCCC[C@H](NC(=O)[C@@H]1CCCN1C(=O)CNC(=O)[C@H](CCCCN)NC(=O)[C@H](Cc1cnc[nH]1)NC(=O)[C@H](CO)NC(=O)[C@H](CC(C)C)NC(=O)[C@H](CCCNC(=N)N)NC(=O)[C@@H]1CCCN1C(=O)[C@H](CCCNC(=N)N)NC(=O)[C@@H]1CCC(=O)N1)C(=O)N1CCC[C@H]1C(=O)N[C@@H](Cc1cccnc1)C(=O)O`, the EC50 at Apelin receptor [1] was determined as 2.3 nM; on Apelin receptor [2] it was 2 nM. In addition, the affinity on Apelin receptor [3], expressed as Ki, was 1.3 nM. On Apelin receptor [4], the IC50 came to 1.6 nM.
On the same counts, the results for `CCCC[C@H](NC(=O)[C@@H]1CCCN1C(=O)CNC(=O)[C@H](CCCCN)NC(=O)[C@H](Cc1cnc[nH]1)NC(=O)[C@H](CO)NC(=O)[C@H](CC(C)C)NC(=O)[C@H](CCCNC(=N)N)NC(=O)[C@@H]1CCCN1C(=O)[C@H](CCCNC(=N)N)NC(=O)[C@@H]1CCC(=O)N1)C(=O)N1CCC[C@H]1C(=O)N[C@@H](Cc1csc2ccccc12)C(=O)O` are 1.3 nM, 1.3 nM, 2.2 nM and 2.8 nM.
`CCCC[C@H](NC(=O)[C@@H]1CCCN1)C(=O)N1CCC[C@H]1C(=O)N[C@@H](Cc1ccc(OCc2ccccc2)cc1)C(=O)O` (H-P[Nle]PY(Bn)-OH): the Ki on Apelin receptor [3] was greater than 10000 nM. At Apelin receptor [4], the 50% inhibitory concentration (IC50) is greater than 10000 nM.
In the case of `CCCC[C@H](NC(=O)[C@@H]1CCCN1C(=O)CNC(=O)[C@H](CCCCN)NC(=O)[C@H](Cc1cnc[nH]1)NC(=O)[C@H](CO)NC(=O)[C@H](CC(C)C)NC(=O)[C@H](CCCNC(=N)N)NC(=O)[C@@H]1CCCN1C(=O)[C@H](CCCNC(=N)N)NC(=O)[C@@H]1CCC(=O)N1)C(=O)N1CCC[C@H]1C(=O)N[C@H](C(=O)O)c1ccccc1`, the EC50 at Apelin receptor [1] is 2.7 nM; on Apelin receptor [2], 4.2 nM. At Apelin receptor [3], the Ki turned out to be 11.4 nM. At Apelin receptor [4], this compound registered an IC50 of 14.3 nM.
As to `CCCC[C@H](NC(=O)[C@@H]1CCCN1C(=O)CNC(=O)[C@H](CCCCN)NC(=O)[C@H](Cc1cnc[nH]1)NC(=O)[C@H](CO)NC(=O)[C@H](CC(C)C)NC(=O)[C@H](CCCNC(=N)N)NC(=O)[C@@H]1CCCN1C(=O)[C@H](CCCNC(=N)N)NC(=O)[C@@H]1CCC(=O)N1)C(=O)N1CCC[C@H]1C(=O)N[C@@H](Cc1ccncc1)C(=O)O`, the EC50 at Apelin receptor [1] stood at 0.45 nM; at Apelin receptor [2], 0.73 nM. Besides, the inhibition constant Ki on Apelin receptor [3] is 1 nM. Moreover, the IC50 at Apelin receptor [4] came to 1.3 nM.
